Results from patent US11499185B2, “Nucleic acid sequencing methods and systems” (OMNIOME, INC., priority 2015, dated 2022).

Target: T1, HIV reverse transcriptase (Human immunodeficiency virus type 1 group M subtype B, UniProt P04585)
T1 construct: Recombinant purified HIV reverse transcriptase (HIV RT); purchased Worthington Biochemical Corp (Lakewood, N.J.)
Assay: Binding of HIV RT to biosensor coated with primer-template (Octet QK), with dNTP and NNRTI
Parameters: species or system HIV-1
Description: Template oligonucleotide Btn-4460-45095 and primer oligonucleotide 4496-4509AS were synthesized and analyzed (liquid chromatography-mass spectrometry (LC-MS) and electrospray ionization (ESI)) by Integrated DNA Technologies (Coralville, Iowa). Oligonucleotides were prepared in TE Buffer (10 mM Tris pH 8.0, 0.1 mM EDTA) to 100 μM. Primer and template oligonucleotides were combined (10 μM each strand) in a tube containing Annealing Buffer (10 mM Tris pH 8.0, 0.1 mM EDTA, 80 mM KCl). The tube containing primer-template solution was loaded onto a dry heat block (95° C. for 5 min), and the block was transferred to the bench top to anneal the strands by gradual cooling to ambient temperature. Uncompetitive NNRTI compounds (Pitta et al., J. Enzyme Inhib. Med. Chem. 28(10):113-22 (2013)), which is incorporated by reference herein in its entirety), were from Epigen Biosciences, Inc. (San Diego, Calif.). NNRTI compounds 7 (3-4-chloro-benzo[d]thiazol-2yl)-2-(2-chloro-6-fluorophenyl)thiazolidin-4-one) and 18 (3-(6-ethoxy-benzo[d]thiazol-2-yl)-2-(2-chloro-6-fluorophenyl)thiazolidin-4-one) were dissolved in dimethylsulfoxide (DMSO) to concentrations of 25.0 mM and 15.0 mM, respectively. Recombinant purified HIV reverse transcriptase (HIV RT) was from Worthington Biochemical Corp (Lakewood, N.J.). Ultra-pure bovine serum albumin (BSA) was from Ambion (Foster City, Calif.). All reagents and solutions were molecular biology grade.
Primer-template duplex was diluted ([…]) into Annealing Buffer. Immediately before use, HIV Reverse Transcriptase was pre-diluted into Enzyme Diluent (50 mM Tris, pH 8.0, 8 mM MgCl2). Binding buffer (50 mM Tris, pH 8.0, 160 mM KCl, 0.5 mM EDTA, 11 mM MgCl2, 0.3% (v/v) Triton X-100, 5.3 mM dithiothreitol (DTT), 100 μg/mL bovine serum albumin (BSA), 100 μM dNTP (dATP, dTTP, dGTP or dCTP), 100 nM HIV RT). NNRTI compounds were pre-diluted with DMSO immediately before being spiked into Binding Buffer. Reaction Buffer was Binding Buffer without NNRTI, dNTP or HIV RT enzyme. Buffer containing Primer-Template (PT), PT Wash Buffer, Binding buffer containing one dNTP, and Reaction Buffer were loaded (200 μL/well) into a Greiner 96-well black microplate (Sigma-Aldrich, St. Louis, Mo.; catalog number M9685). Streptavidin (SA) Biosensors (Pall ForteBio Corp., Menlo Park, Calif.; catalog number 18-5019) were re-hydrated in Annealing Buffer for approximately 10 minutes before use. The Octet QK biosensor system (Pall ForteBio Corp., Menlo Park, Calif.) was set for 30° C. operation and was programmed to coat the biosensors with Primer-Template and wash away unbound Primer-Template with PT Wash Buffer. Biosensors were transferred to Binding Buffer containing HIV RT+dCTP±NNRTI (association phase) followed by Reaction Buffer (dCTP incorporation and dissociation phase). Similarly, biosensors were transferred cyclically to solutions containing individual deoxyribonucleoside triphosphates (dATP, dGTP, dCTP or dTTP) as indicated. Cycles of binding and incorporation were repeated multiple times.
Data were imported into Microsoft Excel and Prism software (GraphPad Software, San Diego, Calif.) for display. The progress of binding and dissociation reactions was smoothed either by averaging within a 19.4-second window or by Prism software (19.4-second window and 6th-order smoothing polynomial).

Row | Compound | binding to biosensor coated with primer-template in the association phase (HIV RT + incorrect nucleotides dCTP and dATP (cycles 7 and 8) + NNRTI 40 μM, FIG. 7A) | binding to biosensor coated with primer-template in the association phase (HIV reverse transcriptase + correct dNTP + NNRTI 40 μM, ALK primer-template, FIG. 7A) | binding to biosensor coated with primer-template in the association phase (control: HIV RT with 40 μM NNRTI, no dNTP, FIG. 7A) | binding to biosensor coated with primer-template in the association phase (HIV RT + incorrect nucleotide dTTP (cycle 4) + NNRTI 80 μM, FIG. 8) | binding to biosensor coated with primer-template in the association phase (HIV reverse transcriptase + correct dNTP + NNRTI 80 μM, ALK primer-template, FIG. 8) | binding to biosensor coated with primer-template in the association phase (control: HIV RT with 80 μM NNRTI, no dNTP, FIG. 8)
1 | O=C1CSC(c2c(F)cccc2Cl)N1c1nc2c(Cl)cccc2s1 (stereo not drawn) [NNRTI compound 7] | did not produce a binding peak | distinct peaks for binding | did not produce appreciable binding peaks |  |  | 
2 | CCOc1ccc2nc(N3C(=O)CSC3c3c(F)cccc3Cl)sc2c1 (stereo not drawn) [NNRTI compound 18, 3-(6-ethoxy-benzo[d]thiazol-2-yl)-2-(2-chloro-6-fluorophenyl)thiazolidin-4-one] |  |  |  | did not show a binding peak | distinct peaks for binding | did not produce appreciable binding peaks
